According to paper PMC9950073, “Alleviation of arthritis through prevention of neutrophil extracellular traps by an orally available inhibitor of protein arginine deiminase 4” (Scientific Reports, 2023):
“And” between values parts separate entries of the source, which are not always exact repeats. Equal entries are not always repeated.

Tests used:
[1] = target: T1, recombinant human PAD4 enzyme (Homo sapiens, UniProt Q9UM07); experiment: PAD4 biochemical assay measuring ammonia release; conditions: 10 semi-log concentrations, figure box prints no unit, x axis μM, read-out: IC50, inhibition of PAD4 enzymatic activity
T1 construct: Full-length recombinant human PAD4 used in the assay was produced at Jubilant Biosys Ltd, Bangalore; made in house
T1 sequence (Q9UM07 whole entry): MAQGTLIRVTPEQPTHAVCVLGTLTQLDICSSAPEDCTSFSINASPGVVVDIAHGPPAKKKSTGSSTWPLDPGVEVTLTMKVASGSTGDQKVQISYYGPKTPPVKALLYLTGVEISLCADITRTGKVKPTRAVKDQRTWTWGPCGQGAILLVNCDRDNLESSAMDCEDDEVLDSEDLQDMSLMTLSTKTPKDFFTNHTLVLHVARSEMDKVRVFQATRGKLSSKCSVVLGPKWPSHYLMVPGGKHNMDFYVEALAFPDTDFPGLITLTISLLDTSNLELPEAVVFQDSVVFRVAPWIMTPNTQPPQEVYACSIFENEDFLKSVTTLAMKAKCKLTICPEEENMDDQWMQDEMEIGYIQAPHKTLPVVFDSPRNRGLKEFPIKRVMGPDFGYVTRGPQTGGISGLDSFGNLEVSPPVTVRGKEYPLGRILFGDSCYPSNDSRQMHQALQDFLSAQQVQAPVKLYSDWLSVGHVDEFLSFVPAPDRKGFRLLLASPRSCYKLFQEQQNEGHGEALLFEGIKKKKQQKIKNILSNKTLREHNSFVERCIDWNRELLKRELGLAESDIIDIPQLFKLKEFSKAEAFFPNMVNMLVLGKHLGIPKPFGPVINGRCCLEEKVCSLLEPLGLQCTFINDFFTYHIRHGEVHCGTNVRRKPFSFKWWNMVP
Experimental: This assay relies on the ammonia produced when peptidylarginine deiminase 4 (PAD4) deiminates Nα-Benzoyl-L-arginine ethyl ester (BAEE) (Sigma, Catalog No: B4500), a non-natural substrate. The ammonia reacts with a detector i.e., ortho-phthaladehyde (OPA) (Sigma, Catalog No: P0657) resulting in a fluorescent product that is then analyzed at an excitation wavelength of 410 nm and an emission wavelength of 470 nm[33]. Full-length recombinant human PAD4 used in the assay was produced at Jubilant Biosys Ltd, Bangalore. PAD4 enzyme (125 nM) was diluted in Assay Buffer (100 mM HEPES, 50 mM NaCl, 2 mM DTT, 0.6 mg/ml BSA, pH7) and incubated with different concentrations of JBI-589 for 60 min at room temperature and then the reaction was initiated by the addition of substrate (1.5 mM BAEE (sigma) in 100 mM HEPES, 50 mM NaCl, 500 μM CaCl2, 2 mM DTT, pH7) then incubated with 1.5 mM BAEE substrate (Sigma) for another 60 min. The reaction was then stopped by the addition of detection buffer containing 50 mM EDTA, 2.6 mM ortho-phthalaldehyde and 2 mM DTT and fluorescence was measured. IC50 values were determined by sigmoidal dose–response curve (variable slope) using GraphPad Prism 5 software. […]

[2] = Microsomal stability, MLM; type: in vitro ADME, mouse; conditions: 1 µM, liver microsomes 0.5 mg/mL; one range given for HLM/MLM/DLM/RLM
Experimental: (§1) Microsomal stability: Liver microsomes (0.5 mg/mL) from different species were incubated with JBI-589 (1 µM) with or without NADPH (1 mM) at 37 °C for 30 min in potassium phosphate buffer (pH 7.4) and then reaction was stopped with quenching solution (0.5% Formic acid in internal standard (IS) containing ACN). Resulting samples were centrifuged and supernatant was taken for LC–MS/MS analysis. Percent metabolism was calculated as follows: % Metabolized: [1 − (test area ratio/control area ratio)] *100.

[3] = Microsomal stability, RLM; type: in vitro ADME, rat; conditions: 1 µM, liver microsomes 0.5 mg/mL; one range given for HLM/MLM/DLM/RLM
Experimental: as §1

CYP2C19 = target: T2, CYP2C19 (Homo sapiens, UniProt P33261); experiment: CYP inhibition in human liver microsome, CYP2C19; type: in vitro ADME
T2 construct: from tissue; host or cells: human liver microsomes
T2 sequence (P33261 whole entry): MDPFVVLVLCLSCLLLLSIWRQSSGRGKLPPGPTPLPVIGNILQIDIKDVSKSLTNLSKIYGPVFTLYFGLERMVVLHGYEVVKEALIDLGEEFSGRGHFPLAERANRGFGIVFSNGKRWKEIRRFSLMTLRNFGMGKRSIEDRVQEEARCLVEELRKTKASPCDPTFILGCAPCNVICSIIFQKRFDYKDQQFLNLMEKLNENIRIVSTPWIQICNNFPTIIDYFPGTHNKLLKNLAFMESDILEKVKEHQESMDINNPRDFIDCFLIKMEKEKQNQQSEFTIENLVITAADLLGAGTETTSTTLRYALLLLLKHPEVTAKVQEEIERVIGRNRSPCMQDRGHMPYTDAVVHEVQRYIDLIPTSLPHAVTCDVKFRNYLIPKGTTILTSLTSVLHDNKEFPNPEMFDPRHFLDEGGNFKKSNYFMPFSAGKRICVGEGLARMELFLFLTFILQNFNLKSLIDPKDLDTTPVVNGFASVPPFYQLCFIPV
Experimental: (§2) CYP inhibition: Human liver microsome (0.1–0.5 mg/mL for various CYPs) and appropriate probe substrates (2.5–20 µM) were incubated in potassium phosphate buffer with or without JBI-589 for 5 min at 37 °C. The reaction was initiated by addition of NADPH (1 mM), incubated at 37 °C for 10 min and quenched (0.5% Formic acid in internal standard (IS) containing ACN). Samples were then centrifuged and taken for LC–MS/MS analysis. Percent change in metabolite formation for each substrate under above conditions using formula: Percent inhibition = [1 − (test area ratio/control area ratio)] *100.

CYP1A2 = target: T3, CYP1A2 (Homo sapiens, UniProt P05177); experiment: CYP inhibition in human liver microsome, CYP1A2; type: in vitro ADME
T3 construct: from tissue; host or cells: human liver microsomes
T3 sequence (P05177 1-516): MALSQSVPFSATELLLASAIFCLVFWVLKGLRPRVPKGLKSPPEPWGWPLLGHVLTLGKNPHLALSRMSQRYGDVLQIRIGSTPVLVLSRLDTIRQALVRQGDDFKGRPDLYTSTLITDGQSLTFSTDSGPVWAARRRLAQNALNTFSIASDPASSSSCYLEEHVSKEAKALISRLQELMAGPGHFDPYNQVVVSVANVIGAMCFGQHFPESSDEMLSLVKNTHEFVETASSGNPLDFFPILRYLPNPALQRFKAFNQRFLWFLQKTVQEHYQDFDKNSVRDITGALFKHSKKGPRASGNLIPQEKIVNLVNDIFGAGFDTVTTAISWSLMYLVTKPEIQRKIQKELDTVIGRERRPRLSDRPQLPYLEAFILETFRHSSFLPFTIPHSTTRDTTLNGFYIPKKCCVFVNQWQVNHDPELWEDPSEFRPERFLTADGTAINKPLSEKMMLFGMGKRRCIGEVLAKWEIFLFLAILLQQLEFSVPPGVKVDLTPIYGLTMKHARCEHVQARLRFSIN
Experimental: as §2

[4] = predicted from % inhibition, text says major CYPs tested

With `Cc1c(-c2cc3ccccc3n2Cc2ccc(F)cc2)nc2cc(C(=O)N3CCC[C@@H](N)C3)ccn12` [JBI-589, (R)-(3-aminopiperidin-1-yl)(2-(1-(4-fluorobenzyl)-1H-indol-2-yl)-3-methylimidazo[1,2-a]pyridin-7-yl)methanone] the IC50 [1] was 0.122 µM and 0.123 µM, the “MLM % metabolized @ 30 min” value [2] was 25-50% and the “RLM % metabolized @ 30 min” value [3] was 25-50%. It also gave an inhibition at 10 min, 10 µM (CYP2C19; human liver microsomes, 10 µM, human liver microsome, read-out: CYP2C19 inhibition (% inh @10 µM)) of less than 50%, an IC50 (CYP2C19; [4]) greater than 10000 nM and an inhibition at 10 min, 10 µM (CYP1A2; human liver microsomes, 10 µM, human liver microsome, read-out: CYP1A2 inhibition (% inh @10 µM)) of less than 50%. For the same compound, the IC50 (CYP1A2; [4]) was greater than 10000 nM.
